System: PDK-1 membrane localization
Experiment: Immunofluorescence, membrane localization of PDK-1 at higher concentrations
Format: cell-based
Conditions: 6 hours of exposure
Description: Cells were stained for endogenous PH domain-containing proteins (Akt, PHLPP, PDK-1, ILK, BTK) by incubation with specific antibodies (1:100), followed by incubation with the Alexa Fluor 555-conjugated goat anti-rabbit or Alexa Fluor 488-conjugated goat anti-mouse IgG (1:200) at room temperature for 2 hours. Both primary and secondary antibodies were diluted in incubation buffer containing 0.1% Triton X-100 and 0.2% bovine serum albumin in PBS. The cells were washed in PBS after each step and mounted using […] mounting medium supplemented with DAPI (Vector Laboratories Inc., Burlingame, Calif.). The slides were allowed to set for at least 4 hours before confocal images were acquired using a Zeiss LSM 510 inverted confocal laser scanning microscope operated with Zeiss LSM 510 software. Image analysis was performed using ImageJ (NIH) software.

Q: What does the source list for Cc1c(O)cc2c(c1C)O[C@](C)(CCCC(C)C)CC2 [γ-VE5, (R)-2,7,8-trimethyl-2-(4-methylpentyl)-chroman-6-ol]?
A: membrane-associated PDK-1, share of total immunofluorescence signal (25 μM): approximately 50%; membrane-associated PDK-1, share of total immunofluorescence signal (35 μM): greater than 90%
